# Test results taken from article PMC7887271, “Fast acting allosteric phosphofructokinase inhibitors block trypanosome glycolysis and cure acute African trypanosomiasis in mice” (Nature Communications, 2021).
# Where “and” joins values, the source holds several entries; their conditions need not be identical. Identical values can stand only once. Like-named read-outs stand apart in the source and are kept apart here.
# Legend:
# [1] = molecular target: T1, T. brucei phosphofructokinase (TbPFK) (Trypanosoma brucei brucei, UniProt O15648); assay: ADP-Glo assay for measuring PFK inhibition; assay type: biochemical; details: for RLU, avg / RLU, individual replicates: SuppFig1
# T1 construct: made in house; host or cells: Escherichia coli C41 (pET28a, codon optimised gene)
# T1 sequence (O15648 1-487): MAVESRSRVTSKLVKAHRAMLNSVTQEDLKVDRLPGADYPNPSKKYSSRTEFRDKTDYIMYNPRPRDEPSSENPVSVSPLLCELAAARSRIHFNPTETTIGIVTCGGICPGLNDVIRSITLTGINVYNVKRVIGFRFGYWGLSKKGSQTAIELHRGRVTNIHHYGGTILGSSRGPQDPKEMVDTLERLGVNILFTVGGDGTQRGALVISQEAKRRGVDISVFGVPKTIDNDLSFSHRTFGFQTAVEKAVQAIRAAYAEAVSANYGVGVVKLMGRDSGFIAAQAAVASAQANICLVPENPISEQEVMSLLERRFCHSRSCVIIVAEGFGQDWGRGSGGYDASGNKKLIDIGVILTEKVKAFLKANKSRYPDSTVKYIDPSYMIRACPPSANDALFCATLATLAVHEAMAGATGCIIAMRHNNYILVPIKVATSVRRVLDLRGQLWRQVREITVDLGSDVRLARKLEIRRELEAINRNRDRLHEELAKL
# Protocol: Parasite enzyme kinetic data were measured using N-terminally His6-tagged TbPFK expressed in Escherichia coli C41 cells, using a codon optimised gene inserted in a pET28a vector (Supplementary Methods 1). Recombinant human PFKs were expressed in PFK-deficient Saccharomyces cerevisiae. PFK enzyme inhibition was measured using an ADP-Glo^TM assay (Promega) in a 96-well plate format (Supplementary Methods 2.1), using a Spectramax© M5 Multimode Plate Reader to measure luminescence values which were converted to ADP concentrations. IC50 values were determined using a sigmoidal curve fitting algorithm in Kaleidagraph 4 (Supplementary Fig. 1). Mode of action studies were carried out using a linked enzyme assay coupling the forward reaction of TbPFK to the M1 isoform of human pyruvate kinase followed by lactate dehydrogenase. The change in UV absorbance at 340 nm resulting from the conversion of NADH to NAD^+ was measured at 25 °C in ‘kinetic mode’ on a Spectramax© M5 Multimode plate reader. Initial velocities were plotted against substrate concentration to give curves showing non-competitive inhibition (Supplementary Fig. 2). An alternative linked enzyme assay was developed to control for the potential inhibitory activity of ATP on human PFK (Supplementary Methods 2.3).
# The ADP-Glo™ end-point assay kit manufactured by Promega (cat. No. V9102) was used to measure ADP produced in the phosphofructokinase reaction:
# Following this kinase reaction, the addition of a reagent results in any unused background ATP being removed and the reaction is sequestered. A second reagent is then added to convert the remaining ADP to ATP which is coupled to the luciferase/luciferin reaction to produce light. ‘Ultrapure’ ATP and ADP from Promega were used to reduce background noise. All reagents additional to those provided in the Promega ADP-Glo™ kit were purchased from Sigma-Aldrich.
# The assay buffer comprised 50 mM triethanolamine (TEA), 10 mM MgCl2, 5 mM KCl, 0.1% w/v bovine serum albumin (BSA), 0.005% Tween-20, 1% DMSO, pH 7.4. A 3-fold serial dilution of 250x inhibitor stocks was carried out in 100% DMSO. 2 µl of these dilutions was added to 198 µl assay buffer and mixed well using a multichannel pipette. […] Concentration ranges of inhibitor compounds were 40 - 0.006 µM (final concentration, 1% DMSO). The PFK reaction in the presence of inhibitor was carried out using 10 µl of 1 µg/ml PFK (final concentration 0.4 µg/ml) which was added to 10 µl of the 1% DMSO inhibitor compound serial dilutions in a white, non-binding 96-well plate (Greiner BioOne 655904). CTCB-001 was used as a positive control at a final concentration of 5 µM. Assay buffer containing 1% DMSO was added instead of inhibitor compound for the negative control. The protein/inhibitor mixture was incubated for 10 minutes at room temperature (RT). The kinase reaction was started by adding a 5x ATP/F6P stock in assay buffer (final concentrations 0.5 mM F6P and 0.1 mM ATP). Plates were then sealed, centrifuged at 560 x g for 30 seconds and incubated at RT for 30 minutes. 25 µl of ‘ADP-Glo™ Reagent’ was then added to each well, mixed using a multichannel pipette and incubated at room temperature for 40 minutes. 50 µl of ‘Kinase Detection Reagent’ was added and incubated for 50 minutes at RT. The luminescence was recorded using a Spectramax© M5 Multi-mode Plate Reader (Molecular Devices) in single-point mode, with an integration time of 750 milliseconds. The luminescence values were converted to ADP concentration using a standard calibration curve for ADP. The resulting ADP concentrations were plotted as a function of inhibitor compound concentration using Kaleidagraph 4.0 software. The data were analysed using non-linear regression and a sigmoidal curve was fitted (Supplementary Figure 1) to determine the IC50. Kaleidagraph 4.0 uses the Levenberg-Marquardt algorithm in an iterative procedure to fit non-linear curves. […] The slope of the curve at the midpoint (m4) was set to 1.
# [2] = Metabolic stability, human liver microsomes; assay type: in vitro ADME; details: read-out: HLM Clint
# Protocol: A HepG2 cytotoxicity assay was used to determine a cellular selectivity index. HepG2 cells were seeded into 96-well plates in EMEM medium. Compounds were assessed for their effect upon cellular viability (Supplementary Methods 5.1). Inhibition of CYP450 was determined using kits from BD Biosciences (Supplementary Methods 5.2). Metabolic stability was determined using mouse […] tested at a single concentration of 5 µM. Plasma protein binding was determined using mouse and human plasma at a single concentration of 10 µM (Supplementary Methods 5.4). All PK studies in mice were carried out by Pharmidex (Supplementary Methods 6.1).
# Compounds were tested for their metabolic stability using mouse and human liver microsomes (MLM and HLM). The compounds were tested at a single concentration of 5 µM. The samples were crashed with acetonitrile and put through protein precipitation plates. The eluent was analysed by LC/MS or LC/MS/MS.
# [3] = ADP-Glo, mean ± SD, read-out: IC50 (µM) for inhibition of T. brucei phosphofructokinase (PFK IC50)
# [4] = source data, read-out: IC50 (µM), single dated measurement
# [5] = source data for Fig. 2 and Table 1, read-out: Average IC50
structure (smiles),measurement,setting,value
"CN(C)CCn1ccc2c(ccn2Cc2ccc(F)c(Br)c2)c1=O [CTCB-508, 1-[(3-Bromo-4-fluorophenyl)methyl]-5-[2-(dimethylamino)ethyl] pyrrolo[3,2-c]pyridin-4-one]",IC50,[1]; [3],0.2 ± 0.05 µM
same,IC50,[1]; [4],0.13 µM and 0.229 µM and 0.25 µM
same,microsomal CLint at 5 µM,[2],< 8.6 µL/min/mg
CN(C)CCn1ccc2c(ccn2Cc2ccc(Cl)c(Cl)c2)c1=O [CTCB 405],"RLU, avg",[1]; Conc 0.00640146 uM,39926.3 RLU
same,"RLU, individual replicates",[1]; Conc 0.00640146 uM,40029.2 RLU and 39823.3 RLU
same,"RLU, avg",[1]; Conc 0.0192044 uM,39977.3 RLU
same,"RLU, individual replicates",[1]; Conc 0.0192044 uM,42153.7 RLU and 37800.9 RLU
same,"RLU, avg",[1]; Conc 0.0576132 uM,34288.1 RLU
same,"RLU, individual replicates",[1]; Conc 0.0576132 uM,36858 RLU and 31718.2 RLU
same,"RLU, avg",[1]; Conc 0.17284 uM,23285 RLU
same,"RLU, individual replicates",[1]; Conc 0.17284 uM,25069.7 RLU and 21500.2 RLU
same,"RLU, avg",[1]; Conc 0.518519 uM,10488.4 RLU
same,"RLU, individual replicates",[1]; Conc 0.518519 uM,11745.9 RLU and 9230.85 RLU
same,"RLU, avg",[1]; Conc 1.55556 uM,4498.05 RLU
same,"RLU, individual replicates",[1]; Conc 1.55556 uM,4537.49 RLU and 4458.6 RLU
same,"RLU, avg",[1]; Conc 4.66667 uM,2709.41 RLU
same,"RLU, individual replicates",[1]; Conc 4.66667 uM,2899.92 RLU and 2518.91 RLU
same,"RLU, avg",[1]; Conc 14 uM,1717.44 RLU
same,"RLU, individual replicates",[1]; Conc 14 uM,1947.39 RLU and 1487.48 RLU
"CN(C)CCn1ccc2c(ccn2Cc2ccc(Cl)c(Br)c2)c1=O [CTCB-470, 1-[(3-Bromo-4-chlorophenyl)methyl]-5-[2-(dimethylamino)ethyl] pyrrolo[3,2-c]pyridin-4-one]",IC50,[1]; [5],0.21 µM
same,IC50,[1]; [4],0.137 µM and 0.154 µM and 0.209 µM and 0.359 µM
same,microsomal CLint at 5 µM,[2],17 µL/min/mg
CNCCn1ccc2c(ccn2Cc2ccc(Cl)c(Cl)c2)c1=O [CTCB-435],IC50,[1]; [5],0.12 µM
same,IC50,[1]; [4],0.111 µM and 0.127 µM
"CN(C)CCn1ccc2c(ccn2Cc2ccc(Cl)c(Cl)c2)c1=O [CTCB-405, 1-[(3,4-Dichlorophenyl)methyl]-5-[2-(dimethylamino)ethyl] pyrrolo[3,2-c]pyridin-4-one]",IC50,[1]; [3],0.18 ± 0.03 µM
same,IC50,[1]; [4],0.209 µM and 0.202 µM and 0.134 µM and 0.19 µM
same,microsomal CLint at 5 µM,[2],< 8.6 µL/min/mg
